In the supplement of paper PMC10307832:

Key:
Test in all cases: relative viability (nuclei count vs DMSO), 5 days (fraction); higher = more cells survive
[1] = compound: C1COCCN1C2=NC(=NC3=C2OC4=C3C=CC=N4)C5=CC(=CC=C5)NC(=O)C6=CN=C(C=C6)N + COc1cccc2cc(-c3nc([C@H]4CC[C@H](C(=O)O)CC4)n4ncnc(N)c34)[nH]c12 [OSI-027] (partner 0.5 µM)
How it was run: (§1)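 Relative viability is defined as nuclei in treated wells over nuclei in vehicle wells. Duplicate plates were run and medians reported. Lung cancer cell lines in 1536-well plates were dosed by pin tool one day after seeding, with one drug or with a fixed anchor-drug dose plus five library-drug doses (not always all listed) in √10 steps, and nuclei were counted after 5 days.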

[2] = compound: C1COCCN1C2=NC(=NC3=C2OC4=C3C=CC=N4)C5=CC(=CC=C5)NC(=O)C6=CN=C(C=C6)N + Nc1ncn([C@H]2C[C@H](O)[C@@H](CO)O2)c(=O)n1 [Decitabine] (partner 2 µM)
How it was run: as §1

SGI-1776 + Navitoclax = compound: CN1CCC(CNc2ccc3ncc(-c4cccc(OC(F)(F)F)c4)n3n2)CC1 [SGI-1776] + CC1(C)CCC(c2ccc(Cl)cc2)=C(CN2CCN(c3ccc(C(=O)NS(=O)(=O)c4ccc(N[C@H](CCN5CCOCC5)CSc5ccccc5)c(S(=O)(=O)C(F)(F)F)c4)cc3)CC2)C1 [Navitoclax] (partner 0.5 µM)
How it was run: as §1

SGI-1776 + AZD7762 = compound: CN1CCC(CNc2ccc3ncc(-c4cccc(OC(F)(F)F)c4)n3n2)CC1 [SGI-1776] + NC(=O)Nc1cc(-c2cccc(F)c2)sc1C(=O)N[C@H]1CCCNC1 [AZD7762] (partner 0.2 µM)
How it was run: as §1

Cell Line	relative viability ([1]; first compound 0.02 µM)	relative viability ([1]; first compound 0.06325 µM)	relative viability ([1]; first compound 0.2 µM)	relative viability ([1]; first compound 0.6325 µM)	relative viability ([1]; first compound 2 µM)	relative viability ([2]; first compound 0.02 µM)	relative viability ([2]; first compound 0.06325 µM)	relative viability ([2]; first compound 0.2 µM)	relative viability ([2]; first compound 0.6325 µM)	relative viability ([2]; first compound 2 µM)	relative viability (SGI-1776 + Navitoclax; first compound 0.08 µM)	relative viability (SGI-1776 + Navitoclax; first compound 0.8 µM)	relative viability (SGI-1776 + Navitoclax; first compound 2.53 µM)	relative viability (SGI-1776 + Navitoclax; first compound 8 µM)	relative viability (SGI-1776 + AZD7762; first compound 0.08 µM)	relative viability (SGI-1776 + AZD7762; first compound 0.8 µM)	relative viability (SGI-1776 + AZD7762; first compound 2.53 µM)	relative viability (SGI-1776 + AZD7762; first compound 8 µM)
LOU-NH91	0.699	0.686	0.739	0.68	0.657	0.792	0.843	0.822	0.794	0.746	0.747	0.744	0.698	0.445	0.797	0.793	0.7	0.593
NCI-H1355	0.397	0.401	0.336	0.359	0.363	0.377	0.374	0.372	0.43	0.418	0.952	0.967	0.883	0.798	0.782	0.772	0.657	0.642
NCI-H322M	0.526	0.523	0.544	0.49	0.416	0.708	0.64	0.695	0.69	0.64	1.28	1.25	1.15	1.12	0.631	0.568	0.524	0.646
NCI-H1395	0.562	0.49	0.523	0.604	0.519	0.719	0.672	0.75	0.788	0.849	1.08	1.41	1.13	0.836	0.424	0.432	0.393	0.402
NCI-H2023	0.369	0.419	0.277	0.182	0.167	0.248	0.246	0.23	0.325	0.191	1.04	1.04	0.998	0.979	–	–	–	–
Calu-6	–	–	–	–	–	–	–	–	–	–	0.922	0.909	0.856	0.626	–	–	–	–
NCI-H2342	0.666	0.603	0.661	0.615	0.649	0.724	0.727	0.751	0.743	0.693	–	–	–	–	0.57	0.625	0.442	0.517
COR-L23	0.937	0.733	0.739	0.704	0.432	0.478	0.502	0.469	0.602	0.389	1.13	1.03	1.11	0.731	–	–	–	–
NCI-H1563	0.824	0.766	0.719	0.659	0.706	–	–	–	–	–	–	–	–	–	–	–	–	–
IA-LM	–	–	–	–	–	–	–	–	–	–	0.951	0.754	0.941	0.905	–	–	–	–
NCI-H650	0.545	0.511	0.488	0.474	0.478	0.315	0.361	0.333	0.443	0.494	–	–	–	–	1.21	0.941	0.994	1.17
NCI-H1299	–	–	–	–	–	–	–	–	–	–	1.04	1.06	0.964	1.04	–	–	–	–
NCI-H2009	0.577	0.628	0.533	0.441	0.386	0.373	0.367	0.415	0.456	0.395	1.15	1.18	1.19	1.08	–	–	–	–
NCI-H1623	0.459	0.434	0.447	0.414	0.405	–	–	–	–	–	–	–	–	–	–	–	–	–
NCI-H661	0.709	0.7	0.659	0.619	0.539	0.593	0.578	0.603	0.63	0.444	–	–	–	–	–	–	–	–
CAL-12T	0.579	0.583	0.446	0.477	0.323	–	–	–	–	–	1.3	1.1	1.29	1.09	0.739	0.667	0.567	0.654
SK-LU-1	0.38	0.36	0.348	0.329	0.266	0.595	0.715	0.609	0.616	0.46	1.27	1.35	1.01	0.468	–	–	–	–
SW 1573	0.592	0.776	0.75	0.477	0.371	0.555	0.472	0.565	0.543	0.422	1.1	0.862	1.15	0.719	–	–	–	–
SW 900	0.759	0.492	0.43	0.467	0.357	0.402	0.42	0.448	0.648	0.558	–	–	–	–	0.852	0.745	0.676	0.568
ABC-1	0.462	0.451	0.461	0.368	0.407	0.929	1.07	0.98	1.23	1.08	–	–	–	–	0.801	0.648	0.85	0.83
NCI-H1648	0.285	0.229	0.264	–	0.279	0.41	0.481	0.456	0.509	0.52	–	–	–	–	0.668	0.753	0.771	0.658
SK-MES-1	0.572	0.664	0.589	0.426	0.337	0.407	0.491	0.408	0.643	0.356	1.35	1.23	1.27	1.15	–	–	–	–
A549	–	–	–	–	–	–	0.362	0.265	0.238	0.256	1.24	1.29	1.27	0.77	–	–	–	–
NCI-H520	0.263	0.257	0.233	0.263	0.211	0.47	0.521	0.588	0.55	0.44	1.14	1.25	1.13	1.08	–	–	–	–
NCI-H358	–	0.832	0.702	0.601	0.443	0.221	0.212	0.211	0.247	0.182	–	–	–	–	0.465	0.467	0.456	0.348
NCI-H2228	0.51	0.606	0.519	0.485	0.251	–	–	–	–	–	0.843	0.817	0.658	0.51	–	–	–	–
